Assay results reported in ChEMBL document CHEMBL1201862, “PubChem BioAssay data set” (2004).
Blank lines part the entries; values can stand above or below the compound they belong to. The source made the active and inactive calls.

Columns and labels:
[1] = target: T1, Heat shock factor protein 1 (Mus musculus, UniProt P38532); experiment: decrease of HSF1-responsive luciferase luminescence – cell-based, NIH3T3, dose retest, confirmation (AID 2382); assay type: functional;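 also: NIH3T3 fibroblasts with HSF1-driven luciferase reporter stressed by proteasome inhibitor MG132; luminescence from HSF1-driven luciferase expression after 8 hours of MG132 stress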
T1 sequence (P38532 whole entry): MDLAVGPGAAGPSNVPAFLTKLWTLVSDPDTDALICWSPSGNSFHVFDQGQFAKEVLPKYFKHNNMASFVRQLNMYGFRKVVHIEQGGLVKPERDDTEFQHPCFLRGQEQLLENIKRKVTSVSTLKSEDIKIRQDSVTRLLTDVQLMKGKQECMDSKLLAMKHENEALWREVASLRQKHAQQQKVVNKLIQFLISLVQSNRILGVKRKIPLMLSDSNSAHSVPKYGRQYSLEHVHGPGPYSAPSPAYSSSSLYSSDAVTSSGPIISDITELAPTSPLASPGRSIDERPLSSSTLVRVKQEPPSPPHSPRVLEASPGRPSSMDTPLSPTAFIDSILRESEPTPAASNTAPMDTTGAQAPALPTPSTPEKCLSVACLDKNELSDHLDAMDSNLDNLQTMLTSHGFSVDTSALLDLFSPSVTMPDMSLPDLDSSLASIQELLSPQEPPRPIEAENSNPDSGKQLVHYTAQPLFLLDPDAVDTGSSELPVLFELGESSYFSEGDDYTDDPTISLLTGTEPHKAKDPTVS

[2] = Luminescence Cell-Based Dose Retest to Confirm Inhibitors of Cancer Stem Cells. [Related pubchem assays (depositor defined):AID2717, AID2721]; assay type: functional, Homo sapiens; conditions: Homo sapiens
[3] = target: T2, Microphthalmia-associated transcription factor (Homo sapiens, UniProt O75030); experiment: reducers of TRPM1 reporter luminescence, concentration series – cell-based, SK-MEL-5, cherry-picked, set 3, MITF inhibitor project, dose response (AID 493073); assay type: functional;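 also: SK-MEL-5 melanoma cells with luciferase driven by the MITF target TRPM1 promoter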
T2 sequence (O75030 whole entry): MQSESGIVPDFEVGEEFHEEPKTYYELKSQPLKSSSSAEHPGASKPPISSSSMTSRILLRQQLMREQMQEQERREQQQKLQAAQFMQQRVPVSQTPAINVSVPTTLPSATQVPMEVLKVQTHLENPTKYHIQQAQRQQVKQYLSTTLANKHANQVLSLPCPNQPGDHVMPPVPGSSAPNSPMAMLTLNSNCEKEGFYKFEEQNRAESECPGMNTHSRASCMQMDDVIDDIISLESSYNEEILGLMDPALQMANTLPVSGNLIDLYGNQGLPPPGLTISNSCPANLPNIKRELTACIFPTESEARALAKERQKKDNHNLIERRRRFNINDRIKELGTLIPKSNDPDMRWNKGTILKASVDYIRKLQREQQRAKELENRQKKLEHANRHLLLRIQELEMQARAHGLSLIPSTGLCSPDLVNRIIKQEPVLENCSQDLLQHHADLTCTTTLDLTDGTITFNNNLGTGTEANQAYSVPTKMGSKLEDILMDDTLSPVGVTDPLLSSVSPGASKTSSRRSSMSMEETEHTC

[4] = reduction of Shn3 3'UTR-driven luciferase in osteoblasts – cell-based, Clone20 osteoblasts, firefly luciferase, cherry-picked, dose response (AID 624132); assay type: functional;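 also: firefly luciferase luminescence from reporter carrying the Shn3 3'UTR in osteoblasts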
[5] = loss of viability in HepG2 cells – cell-based, CellTiter-Glo, cherry-picked, cytotoxicity control for Shn3 inhibitor project, dose response (AID 624134); assay type: functional
[6] = non-specific 3'UTR reporter inhibition in Clone20-Shn3RL – cell-based, Renilla luciferase, cherry-picked, counter-screen for Shn3 inhibitor project, dose response (AID 624133); assay type: functional
Paired box protein Pax-8 = Paired box protein Pax-8 (Homo sapiens, UniProt Q06710); experiment: PAX8 transcriptional activity inhibition in RMG-I – RMG-I cells, luciferase, cherry-pick, dose response (AID 687027); assay type: functional, cell-based;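 also: luciferase reporter driven by Pax8 target thyroperoxidase promoter measured by SteadyGlo luminescence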
Paired box protein Pax-8, sequence (Q06710 whole entry): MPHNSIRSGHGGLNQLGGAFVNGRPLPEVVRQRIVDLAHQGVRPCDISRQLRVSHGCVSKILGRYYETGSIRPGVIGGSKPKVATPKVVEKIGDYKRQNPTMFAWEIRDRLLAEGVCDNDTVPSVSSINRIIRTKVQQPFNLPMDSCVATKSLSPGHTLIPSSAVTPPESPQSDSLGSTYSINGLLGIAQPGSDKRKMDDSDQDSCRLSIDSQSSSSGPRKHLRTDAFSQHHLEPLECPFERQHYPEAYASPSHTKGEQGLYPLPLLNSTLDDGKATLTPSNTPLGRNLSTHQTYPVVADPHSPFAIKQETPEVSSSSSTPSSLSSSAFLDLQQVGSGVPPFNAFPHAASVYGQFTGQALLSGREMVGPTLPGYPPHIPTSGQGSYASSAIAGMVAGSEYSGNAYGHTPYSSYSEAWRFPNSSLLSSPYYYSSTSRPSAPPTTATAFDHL

[7] = A549 cell cytotoxicity, dose response, cytotoxicity control, plate reader, cherry-pick, antagonist series (AID 743412); assay type: functional, cell-based
[8] = toxicity toward HepG2 liver cells – cell-based, plate reader, cherry-pick, antagonist series, cytotoxicity control, dose response (AID 743416); assay type: functional
[9] = blockers of bursicon-stimulated LGR2 cAMP reporter – cell-based, HEK293, CRE-luciferase reporter, cherry pick, set 2, dose response (AID 743343); assay type: functional;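 also: transfected cells were stimulated with diluted bursicon conditioned medium after compound addition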
[10] = general cell-killing toxicity readout – plate reader, dry powder samples, cytotoxicity control for PAX8 inhibitor project, dose response (AID 743021); assay type: functional, cell-based
[11] = blockade of melanocortin 4 receptor signaling – cell-based, plate reader, cherry pick, counter-screen for LGR2 antagonist project, dose response (AID 743444); assay type: functional;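 also: transfected HEK 293 cells stimulated with alpha-MSH peptide; potency of inhibitors of the alpha-MSH evoked signal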
[12] = viability loss in HEK293 cells – cell-based, plate reader, cherry-picked samples, cytotoxicity control, dose response (AID 743446); assay type: functional
[13] = IC50 of Artemis nuclease activity blockers – biochemical, fluorescence intensity, dose response (AID 720701); assay type: functional;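 also: Artemis endonuclease enzyme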
Prothrombin = Prothrombin (Homo sapiens, UniProt P00734); experiment: Thrombin 1536 HTS Dose Response Confirmation. [Related pubchem assays: 1046 (Thrombin 1536 HTS; hits were confirmed in this assay)]; assay type: functional
[14] = target: Endoplasmic reticulum aminopeptidase 1 (Homo sapiens, UniProt Q9NZ08); experiment: inhibition of human ERAP1 enzyme activity – biochemical, cherry-pick, set 2, plate reader, dose response (AID 743314)
Endoplasmic reticulum aminopeptidase 1, sequence (Q9NZ08 whole entry): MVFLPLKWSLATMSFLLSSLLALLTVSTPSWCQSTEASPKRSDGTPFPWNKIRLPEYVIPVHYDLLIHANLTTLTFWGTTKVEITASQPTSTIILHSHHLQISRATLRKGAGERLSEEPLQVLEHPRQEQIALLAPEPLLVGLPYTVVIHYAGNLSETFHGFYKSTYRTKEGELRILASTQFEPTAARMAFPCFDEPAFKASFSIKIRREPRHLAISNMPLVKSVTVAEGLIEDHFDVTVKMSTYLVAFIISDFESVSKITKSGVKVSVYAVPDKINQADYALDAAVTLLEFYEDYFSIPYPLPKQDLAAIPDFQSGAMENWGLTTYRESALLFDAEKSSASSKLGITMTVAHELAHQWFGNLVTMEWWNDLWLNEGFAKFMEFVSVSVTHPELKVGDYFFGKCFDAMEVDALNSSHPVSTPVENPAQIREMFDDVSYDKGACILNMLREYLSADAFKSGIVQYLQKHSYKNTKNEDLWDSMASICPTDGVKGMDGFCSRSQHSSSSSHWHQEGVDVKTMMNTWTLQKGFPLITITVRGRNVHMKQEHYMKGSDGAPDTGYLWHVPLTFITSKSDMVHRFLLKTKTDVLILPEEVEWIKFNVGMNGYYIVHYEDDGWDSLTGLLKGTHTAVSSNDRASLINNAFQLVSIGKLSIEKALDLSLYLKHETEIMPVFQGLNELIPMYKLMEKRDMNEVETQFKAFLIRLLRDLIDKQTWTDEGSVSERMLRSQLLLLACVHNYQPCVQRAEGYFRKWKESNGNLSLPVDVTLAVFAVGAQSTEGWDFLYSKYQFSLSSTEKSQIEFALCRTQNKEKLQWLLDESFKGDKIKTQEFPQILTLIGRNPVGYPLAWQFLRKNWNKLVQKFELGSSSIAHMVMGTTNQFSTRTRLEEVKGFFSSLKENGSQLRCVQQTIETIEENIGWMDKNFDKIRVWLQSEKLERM

[15] = toxicity toward immortalized ovarian surface epithelium – cell-based, plate reader, dry powder samples, cytotoxicity control for PAX8 inhibitor project, dose response (AID 743045); assay type: functional
[16] = OVCAR-3 cell viability loss – plate reader, dry powder samples, PAX8 inhibitor project, dose response (AID 743044); assay type: functional, cell-based
[17] = IGROV1 cell killing – plate reader, dry powder samples, PAX8 inhibitor project, dose response (AID 743043); assay type: functional, cell-based; conditions: IGROV-1
[18] = OVCAR8 cell viability loss – plate reader, dry powder samples, PAX8 project, dose response (AID 743197); assay type: functional, cell-based; conditions: OVCAR-8
[19] = CellTiter-Glo luminescence survival assay, SW480 colon tumor line, concentration-response curve, half-maximal inhibitory concentration (AID 1117338); assay type: functional
[20] = RKO cell viability reduction, dose response, CellTiter-Glo luminescence (AID 1117322); assay type: functional
[21] = cytotoxicity toward HCT116 cells – cell-based, CellTiter-Glo luminescence, IC50, dose response (AID 1117332); assay type: functional; conditions: HCT-116
[22] = cytotoxicity toward Colo320 cells – cell-based, CellTiter-Glo luminescence, IC50, dose response (AID 1117334); assay type: functional; conditions: COLO 320
[23] = cytotoxicity toward HT-29 cells – cell-based, CellTiter-Glo luminescence, IC50, dose response (AID 1117330); assay type: functional
[24] = Reduced DLD-1 viability, concentration-response, CellTiter-Glo luminescence (AID 1117352); assay type: functional
[25] = HCT116 cell viability decrease, GSK3B pretreatment – CellTiter-Glo, IC50, dose response (AID 1117339); assay type: functional; conditions: HCT-116
[26] = rise of 2N DNA cells, HeLa – IC50, dose response (AID 1117349); assay type: functional, cell-based
[27] = rise of 4N DNA cells, HeLa – IC50, dose response (AID 1117351); assay type: functional, cell-based
Kallikrein-7 = Kallikrein-7 (Homo sapiens, UniProt P49862); experiment: Fluorescence Intensity-based biochemical primary high throughput dose response assay to identify activators of kallikrein-7 (K7) zymogen.
Kallikrein-7, sequence (P49862 whole entry): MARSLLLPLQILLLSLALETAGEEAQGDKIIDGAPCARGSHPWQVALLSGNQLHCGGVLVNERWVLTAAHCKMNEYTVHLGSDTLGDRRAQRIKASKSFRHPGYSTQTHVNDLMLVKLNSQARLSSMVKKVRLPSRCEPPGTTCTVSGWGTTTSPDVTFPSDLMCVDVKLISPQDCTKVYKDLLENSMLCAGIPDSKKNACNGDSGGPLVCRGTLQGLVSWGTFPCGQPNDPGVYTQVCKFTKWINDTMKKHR

SMILES: O=C(Nc1ccc2nc3n(c(=O)c2c1)CCCCC3)c1cc([N+](=O)[O-])ccc1F
EC50 [1]: > 195 µM (not active) | AC50 [2]: 5.51 µM (active) | AC50 [3]: 10.7 µM (active) | AC50 [4]: 14.1 µM (active) | AC50 [5]: 42.2 µM (active) | AC50 [6]: 9.99 µM (active) | AC50 (Paired box protein Pax-8): 14.3 µM (active) | AC50 [7]: 17.5 µM (active) | AC50 [8]: 18.3 µM (active) | AC50 [9]: 6.52 µM (active) | AC50 [10]: 42.6 µM (active) | AC50 [11]: 11.5 µM (active) | AC50 [12]: 14.7 µM (active)

IC50 [13]: > 20 µM (inactive)
SMILES: CCN1CCc2nc(NC(=O)C(c3ccccc3)c3ccccc3)sc2C1

IC50 (Prothrombin): 0.223 µM (active)
SMILES: COc1ccccc1C(=O)n1nc(-c2ccccc2)nc1NCc1ccco1

AC50 [14]: 12.6 µM (active)
SMILES: Cc1c(Cc2ccccc2)c(=O)oc2cc(O)ccc12

IC50 (Prothrombin): 1.23 µM (active)
SMILES: CCC(=O)NC(=Nc1ccc(OC)cc1)Nc1nc(C)cc(C)n1

SMILES: COc1ccc(S(=O)(=O)N(C)C[C@@H]2Oc3ccc(NC(=O)Nc4ccc(C(F)(F)F)cc4)cc3CC(=O)N([C@H](C)CO)C[C@@H]2C)cc1
AC50 (Paired box protein Pax-8): 4.64 µM (active) | AC50 [15]: 13.8 µM (active) | AC50 [16]: 6.36 µM (active) | AC50 [17]: 16.8 µM (active) | AC50 [18]: 22.1 µM (active)

IC50 [13]: > 20 µM (inactive)
SMILES: COc1ccc(-c2nn(-c3ccccc3)cc2C(=O)Nc2nc(CC(C)=O)ns2)cc1

SMILES: Cc1cc(-c2ccc(N=Nc3c(S(=O)(=O)O)cc4cc(S(=O)(=O)O)cc(N)c4c3O)c(C)c2)ccc1N=Nc1c(S(=O)(=O)O)cc2cc(S(=O)(=O)O)cc(N)c2c1O
IC50 [19]: > 20 µM (inactive) | IC50 [20]: > 20 µM (inactive) | IC50 [21]: > 20 µM (inactive) | IC50 [22]: > 20 µM (inactive) | IC50 [23]: > 20 µM (inactive) | IC50 [24]: > 20 µM (inactive) | IC50 [25]: > 20 µM (inactive)

SMILES: CCC(C)n1ncn(-c2ccc(N3CCN(c4ccc(OC[C@H]5CO[C@](Cn6cncn6)(c6ccc(Cl)cc6Cl)O5)cc4)CC3)cc2)c1=O (some centres undefined) [ITRACONAZOLE]
IC50 [26]: > 10 µM (inactive) | IC50 [27]: > 10 µM (inactive)

EC50 (Kallikrein-7): > 0.858 µM (active) | AC50 [14]: 3.51 µM (active)
SMILES: COC(=O)Cc1c(C)c2ccc(O)c(CNCc3ccc(OC)c(OC)c3)c2oc1=O
